Test results: BigSolDB 2.1

O=C1CCC(c2ccccc2)=NN1
solubility (mole fraction)
Conditions | 293.15 K | 298.15 K | 303.15 K | 308.15 K | 313.15 K
in transcutol | 0.425 | 0.453 | 0.478 | 0.507 | 0.527
in water | 7.45e-07 | 9.1e-07 | 1.09e-06 | 1.34e-06 | 1.64e-06
